From US20240024273A1, “TOPICAL ADMINISTRATION OF 2-(DIETHYLAMINO)ETHYL 2-(4-ISOBUTYLPHENYL)PROPRIONATE FOR TREATMENT OF DISEASES” (TECHFIELDS PHARMA CO., LTD., priority 2020, published 2024)

System: Mild to Moderate Osteoarthritis of the Knee
Assay: Phase 2 study: WOMAC joint stiffness subscale score
Format: in vivo, human
Conditions: for Change of WOMAC Joint Stiffness score from baseline (±SEM), adjusted by […] of the Testing Drug Amount / Percentage of improvement from baseline, WOMAC Joint Stiffness score, adjusted by […] of the Testing Drug Amount / Change of WOMAC Joint Stiffness score from baseline (±SEM) / Percentage of improvement from baseline, WOMAC Joint Stiffness score: 35 mg/knee (BID); for Change of WOMAC Joint Stiffness score from baseline (±SEM) / Percentage of improvement from baseline, WOMAC Joint Stiffness score: all patients taken as active; for WOMAC Joint Stiffness Subscale Score, Avg.: Avg. of all patients; for WOMAC Joint Stiffness Subscale Score, Avg. / WOMAC Joint Stiffness Subscale Score: blinded; for WOMAC Joint Stiffness Subscale Score: individual patient
Description: This is a Phase 2, multicenter, randomized, double blind (within dose), placebo controlled, parallel group, proof of concept, and dose range finding study to evaluate the efficacy, safety, and PK of 2-(diethylamino)ethyl 2-(4-isobutylphenyl)propionate hydrochloride spray in adult subjects with clinically symptomatic mild to moderate OA of the knee. For subjects with bilateral knee pain, both knees will be treated, but the most symptomatic knee (i.e., the most painful knee as measured by the Western Ontario and McMaster University Osteoarthritis Index [WOMAC® 3.1] pain subscale score at Screening) will be designated as the target knee for efficacy analyses. For subjects with unilateral knee pain, only the symptomatic (target) knee will be treated.
After a Screening Period of up to 3 weeks and radiographic evaluation of the target knee joint space, a subject will be randomly assigned to 1 of 3 treatment groups in a 1:1:1 ratio with a 2:1 ratio of active:placebo within each treatment group (ie, 2 subjects to active treatment and 1 subject to placebo): • Group A: 8.75 mg 2-(diethylamino)ethyl 2-(4-isobutylphenyl)propionate/knee (2 sprays/knee, one spray to the medial surface and one spray to the lateral surface of the knee), twice daily (BID, approximately every 12 hours; n=50) or placebo (2 sprays/knee), BID (approximately every 12 hours; n=25) for a total of 4 sprays per knee per day; • Group B: 17.5 mg 2-(diethylamino)ethyl 2-(4-isobutylphenyl)propionate/knee (4 sprays/knee, one spray to the medial surface and one spray to the lateral surface of the knee, and one spray to front and one spray to the back of the knee), BID (approximately every 12 hours; n=50) or placebo (4 sprays/knee), BID (approximately every 12 hours; n=25) for a total of 8 sprays per knee per day; • Group C: 35 mg 2-(diethylamino)ethyl 2-(4-isobutylphenyl)propionate/knee (8 sprays/knee, each spray is to be applied to a different non-overlapping area around the knee, and the areas are to be uniformly distributed around the knee), BID (approximately every 12 hours; n=50) or placebo (8 sprays/knee), BID (approximately every 12 hours; n=25) for a total of 16 sprays per knee per day.
The VAS version of the WOMAC will be used for the Primary and Secondary Efficacy Endpoints. Efficacy endpoints will be assessed at Screening and Baseline (Day 1) and at the Week 2, Week 4, Week 8, and Week 12/EOS visits.
3.9.2. Secondary Efficacy Endpoints: • 1. Change from Baseline in the WOMAC (VAS) pain subscale score for the target knee at 2, 4, and 8 weeks of treatment; • 2. Change from Baseline in the WOMAC (VAS) stiffness subscale scores for the target knee and WOMAC (VAS) functional ability subscale scores at 2, 4, 8, and 12 weeks of treatment; • 3. Change from Baseline in the overall WOMAC (VAS) score at 2, 4, 8, and 12 weeks of treatment.
The Secondary Efficacy Endpoints, change from Baseline in the WOMAC subscale scores for pain, stiffness, and functional ability, and overall WOMAC score at 2, 4, 8, and 12 weeks of treatment, will be analyzed using the same methods as for the Primary Efficacy Endpoint.
To determine this, we assumed that all patients received 2-(diethylamino)ethyl 2-(4-isobutylphenyl)propionate, active drug treatment (i.e. all patients who received 2-(diethylamino)ethyl 2-(4-isobutylphenyl)propionate or placebo treatment for 12 weeks or mixed up treatment during the 12-week treatment, as 2-(diethylamino)ethyl 2-(4-isobutylphenyl)propionate-treated). Based on this assumption, that is, to treat this trial as an open-label study and that all patients received active treatment, we conducted efficacy analysis using top-line efficacy datasets prepared by CRO and the re-analysis results are presented in the following tables (Tables 29-47). […] (William G. Bensen, Justus J. Fiechtner, James 1. McMillen, et. al. Treatment of Osteoarthritis with Celecoxib. Mayo Clin Proc, November 1999. Vol 74, 1095-1105.)

[1] = Middle Dose (4 spray/knee, 17.5 mg/knee) Cohort, Day 1
[2] = Middle Dose (4 spray/knee, 17.5 mg/knee) Cohort, Week 2

CCN(CC)CCOC(=O)C(C)c1ccc(CC(C)C)cc1 (centres unmarked) [2-(diethylamino)ethyl 2-(4-isobutylphenyl)propionate]
Change of WOMAC Joint Stiffness score from baseline (±SEM), adjusted by […] of the Testing Drug Amount (Week 8 (day 56)): −36.9(±5.8) mm
Percentage of improvement from baseline, WOMAC Joint Stiffness score, adjusted by […] of the Testing Drug Amount (Week 8 (day 56)): −59.3%
Change of WOMAC Joint Stiffness score from baseline (±SEM) (Week 8 (day 56)): −21.5(±3.4) mm
Percentage of improvement from baseline, WOMAC Joint Stiffness score (Week 8 (day 56)): −34.6%
Change of WOMAC Joint Stiffness score from baseline (±SEM), adjusted by […] of the Testing Drug Amount (Week 12 (day 84)): −41.2(±5.7) mm
Percentage of improvement from baseline, WOMAC Joint Stiffness score, adjusted by […] of the Testing Drug Amount (Week 12 (day 84)): −66.2%
Change of WOMAC Joint Stiffness score from baseline (±SEM) (Week 12 (day 84)): −24.0(±3.3) mm
Percentage of improvement from baseline, WOMAC Joint Stiffness score (Week 12 (day 84)): −38.6%
reduction of Stiffness WOMAC from baseline to week 12 (5 patients on second batch active drug kits): 58.6-100%
WOMAC Joint Stiffness Subscale Score, Avg. (35 mg/knee (8 spray/knee), Day 1): 62.1
WOMAC Joint Stiffness Subscale Score, Avg. (35 mg/knee (8 spray/knee), Follow-up): 37.7
WOMAC Joint Stiffness Subscale Score, Avg. (35 mg/knee (8 spray/knee), Week 2): 50.8
WOMAC Joint Stiffness Subscale Score, Avg. (35 mg/knee (8 spray/knee), Week 4): 44.5
WOMAC Joint Stiffness Subscale Score, Avg. (35 mg/knee (8 spray/knee), Week 8): 40.6
WOMAC Joint Stiffness Subscale Score, Avg. (35 mg/knee (8 spray/knee), Week 12): 38.1
WOMAC Joint Stiffness Subscale Score, Avg. [1]: 68.0
WOMAC Joint Stiffness Subscale Score, Avg. (Middle Dose (4 spray/knee, 17.5 mg/knee) Cohort, Follow-up): 41.9
WOMAC Joint Stiffness Subscale Score, Avg. [2]: 49.2
WOMAC Joint Stiffness Subscale Score, Avg. (Middle Dose (4 spray/knee, 17.5 mg/knee) Cohort, Week 4): 44.7
WOMAC Joint Stiffness Subscale Score, Avg. (Middle Dose (4 spray/knee, 17.5 mg/knee) Cohort, Week 8): 41.5
WOMAC Joint Stiffness Subscale Score, Avg. (Middle Dose (4 spray/knee, 17.5 mg/knee) Cohort, Week 12): 38.2
WOMAC Joint Stiffness Subscale, WOMAC VAS Score (Patient 1056, second batch active drug kits, Day 1): 48.5 mm
WOMAC Joint Stiffness Subscale, WOMAC VAS Score (Patient 1056, second batch active drug kits, Follow Up): 17.0 mm
WOMAC Joint Stiffness Subscale, WOMAC VAS Score (Patient 1056, second batch active drug kits, Week 2): 45.0 mm
WOMAC Joint Stiffness Subscale, WOMAC VAS Score (Patient 1056, second batch active drug kits, Week 4): 44.5 mm
WOMAC Joint Stiffness Subscale, WOMAC VAS Score (Patient 1056, second batch active drug kits, Week 8): 43.5 mm
WOMAC Joint Stiffness Subscale, WOMAC VAS Score (Patient 1056, second batch active drug kits, Week 12): 23.5 mm
WOMAC Joint Stiffness Subscale, WOMAC VAS Score (Patient 1064, second batch active drug kits, Day 1): 66.5 mm
WOMAC Joint Stiffness Subscale, WOMAC VAS Score (Patient 1064, second batch active drug kits, Follow Up): 1.0 mm
WOMAC Joint Stiffness Subscale, WOMAC VAS Score (Patient 1064, second batch active drug kits, Week 2): 20.5 mm
WOMAC Joint Stiffness Subscale, WOMAC VAS Score (Patient 1064, second batch active drug kits, Week 4): 12.5 mm
WOMAC Joint Stiffness Subscale, WOMAC VAS Score (Patient 1064, second batch active drug kits, Week 8): 0.0 mm
WOMAC Joint Stiffness Subscale, WOMAC VAS Score (Patient 1064, second batch active drug kits, Week 12): 1.0 mm
WOMAC Joint Stiffness Subscale, WOMAC VAS Score (Patient 1535, second batch active drug kits, Day 1): 55.0 mm
WOMAC Joint Stiffness Subscale, WOMAC VAS Score (Patient 1535, second batch active drug kits, Follow Up): 0.0 mm
WOMAC Joint Stiffness Subscale, WOMAC VAS Score (Patient 1535, second batch active drug kits, Week 2): 3.5 mm
WOMAC Joint Stiffness Subscale, WOMAC VAS Score (Patient 1535, second batch active drug kits, Week 4): 3.0 mm
WOMAC Joint Stiffness Subscale, WOMAC VAS Score (Patient 1535, second batch active drug kits, Week 8): 3.0 mm
WOMAC Joint Stiffness Subscale, WOMAC VAS Score (Patient 1535, second batch active drug kits, Week 12): 0.0 mm
WOMAC Joint Stiffness Subscale, WOMAC VAS Score (Patient 1539, second batch active drug kits, Day 1): 70.0 mm
WOMAC Joint Stiffness Subscale, WOMAC VAS Score (Patient 1539, second batch active drug kits, Follow Up): 2.0 mm
WOMAC Joint Stiffness Subscale, WOMAC VAS Score (Patient 1539, second batch active drug kits, Week 2): 54.5 mm
WOMAC Joint Stiffness Subscale, WOMAC VAS Score (Patient 1539, second batch active drug kits, Week 4): 44.0 mm
WOMAC Joint Stiffness Subscale, WOMAC VAS Score (Patient 1539, second batch active drug kits, Week 8): 8.0 mm
WOMAC Joint Stiffness Subscale, WOMAC VAS Score (Patient 1539, second batch active drug kits, Week 12): 3.0 mm
WOMAC Joint Stiffness Subscale, WOMAC VAS Score (Patient 9032, second batch active drug kits, Day 1): 14.5 mm
WOMAC Joint Stiffness Subscale, WOMAC VAS Score (Patient 9032, second batch active drug kits, Follow Up): 9.5 mm
WOMAC Joint Stiffness Subscale, WOMAC VAS Score (Patient 9032, second batch active drug kits, Week 2): 9.5 mm
WOMAC Joint Stiffness Subscale, WOMAC VAS Score (Patient 9032, second batch active drug kits, Week 4): 5.0 mm
WOMAC Joint Stiffness Subscale, WOMAC VAS Score (Patient 9032, second batch active drug kits, Week 8): 3.0 mm
WOMAC Joint Stiffness Subscale, WOMAC VAS Score (Patient 9032, second batch active drug kits, Week 12): 6.0 mm
WOMAC Joint Stiffness Subscale Score [1]: 64.5
WOMAC Joint Stiffness Subscale Score [2]: 62.0
